From patent US9771351B2, “Wnt signaling inhibitor” (KYOWA HAKKO KIRIN CO., LTD., priority 2013, dated 2017)
Like-named read-outs stand apart in the source and are kept apart here.

Assays:
tankyrase-2 = molecular target: T1, tankyrase-2 (Homo sapiens, UniProt Q9H2K2); assay: Tankyrase-2 enzyme inhibition test (Tankyrase-2 Chemiluminescent Assay Kit); type: biochemical; conditions: autoribosylation of GST-tankyrase-2 fusion protein, chemiluminescence
T1 construct: purchased BPS Bioscience, Inc. 80566
T1 sequence (Q9H2K2 1-1166): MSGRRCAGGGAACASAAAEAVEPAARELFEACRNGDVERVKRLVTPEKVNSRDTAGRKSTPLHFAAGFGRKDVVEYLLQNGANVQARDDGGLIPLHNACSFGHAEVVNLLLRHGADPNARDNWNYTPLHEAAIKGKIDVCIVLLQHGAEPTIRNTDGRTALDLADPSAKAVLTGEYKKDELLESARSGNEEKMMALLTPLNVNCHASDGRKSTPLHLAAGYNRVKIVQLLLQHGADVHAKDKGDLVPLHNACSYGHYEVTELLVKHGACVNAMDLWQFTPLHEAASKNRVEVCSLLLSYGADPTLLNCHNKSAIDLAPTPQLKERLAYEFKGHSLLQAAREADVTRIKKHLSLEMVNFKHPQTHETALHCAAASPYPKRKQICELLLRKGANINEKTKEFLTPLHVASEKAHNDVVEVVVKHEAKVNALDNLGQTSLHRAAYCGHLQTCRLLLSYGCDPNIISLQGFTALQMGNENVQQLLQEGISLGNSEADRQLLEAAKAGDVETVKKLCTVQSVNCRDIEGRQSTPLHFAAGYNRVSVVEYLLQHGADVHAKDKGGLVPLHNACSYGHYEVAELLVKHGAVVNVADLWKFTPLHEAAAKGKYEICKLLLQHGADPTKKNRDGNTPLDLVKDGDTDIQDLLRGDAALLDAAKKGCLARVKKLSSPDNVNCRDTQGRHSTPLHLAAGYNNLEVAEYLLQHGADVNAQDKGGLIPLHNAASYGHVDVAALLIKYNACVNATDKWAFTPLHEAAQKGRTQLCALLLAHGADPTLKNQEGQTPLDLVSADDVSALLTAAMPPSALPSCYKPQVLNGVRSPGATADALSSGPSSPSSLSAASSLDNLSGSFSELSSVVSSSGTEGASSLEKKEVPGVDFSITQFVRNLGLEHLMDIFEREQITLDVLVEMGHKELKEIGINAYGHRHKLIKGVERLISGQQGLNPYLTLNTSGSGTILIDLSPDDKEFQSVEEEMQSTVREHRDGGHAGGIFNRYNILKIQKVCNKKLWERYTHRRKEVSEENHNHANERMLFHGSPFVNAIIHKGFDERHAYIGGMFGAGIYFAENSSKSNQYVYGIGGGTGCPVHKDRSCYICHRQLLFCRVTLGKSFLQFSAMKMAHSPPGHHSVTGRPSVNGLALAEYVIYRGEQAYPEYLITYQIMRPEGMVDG
Method: Test Example 2: Tankyrase-2 Enzyme Inhibition Test
The enzyme activity of tankyrase-2 was evaluated using Tankyrase-2 Chemiluminescent Assay Kit (BPS Bioscience, Inc., Catalog No. 80566). The Tankyrase-2 Chemiluminescent Assay Kit is a kit for evaluating the enzyme activity of tankyrase-2 using autoribosylation of glutathione-S-transferase (GST)-tankyrase-2 fusion protein as an index. All the experimental materials except for PBS (PBST) buffer containing phosphate-buffered saline (PBS) and 0.05% Tween 20 are all included in the kit. The GST-tankyrase-2 enzyme diluted with 50 μL of 1× tankyrase buffer was added to the wells of a 96-well plate coated with glutathione. After the plate was left to stand overnight at 4° C., the plate was washed 3 times with the PBST buffer. 150 μL of blocking buffer was added thereto, and the plate was left to stand at room temperature for 30 minutes to block the wells. The plate was washed 3 times with the PBST buffer. Before the ribosylation reaction, an assay mixture containing a biotinylated substrate and a test compound diluted with 1× tankyrase buffer were mixed, whereby a reaction mixture was prepared. In order to start the ribosylation reaction, 50 μL of the reaction mixture was added to the wells. In a blank well, 1× tankyrase buffer was added in place of the reaction mixture containing a biotinylated substrate. The plate was left to stand at 30° C. for 1 hour. After the reaction, the plate was washed 3 times with the PBST buffer. Streptavidin-horseradish peroxidase (HRP) was diluted to 50-fold with the blocking buffer. The diluted streptavidin-HRP was added to the wells, and the plate was left to stand at room temperature for 30 minutes. The plate was washed 3 times with the PBST buffer. Immediately before use, 50 μL of the HRP chemiluminescent substrate A and 50 μL of the HRP chemiluminescent substrate B were mixed and 100 μL of the resulting mixture was added to the wells. The chemiluminescence was measured using a chemiluminescence measuring apparatus. The inhibition ratio was obtained according to the following formula 2. [Math. 2] Inhibition ratio (%)=100−{(chemiluminescence intensity when test compound was added)−(chemiluminescence intensity of blank)}/{(chemiluminescence intensity of control)−(chemiluminescence intensity of blank)}×100 Formula 2

[1] = system: T-cell factor (TCF)-luciferase reporter using Wnt pathway as index; assay: Inhibitory activity against TCF-luciferase reporter using Wnt pathway as index (DLD-1/TCF-Luc cells); type: cell-based, human; conditions: Homo sapiens, read-out: Inhibition ratio (%) at 1 μmol/L
Method: Test Example 1: Inhibitory Activity Against T-Cell Factor (TCF)-Luciferase Reporter Using Wnt Pathway as Index
The inhibitory activity of test compounds against Wnt pathway was evaluated by the following method.
A human colorectal adenocarcinoma cell line DLD-1 (Japanese Collection of Research Bioresources) was cultured in RPMI-1640 medium (Gibco/Life Technologies, Inc.) containing 10% fetal bovine serum (Gibco/Life Technologies, Inc.), 10 mmol/L of a 4-(2-hydroxyethyl)-1-piperazineethanesulfonic acid (HEPES) buffer solution (Gibco/Life Technologies, Inc.), 1 mmol/L of a sodium pyruvate solution (Gibco/Life Technologies, Inc.), 4.5 g/L of a D-(+)-glucose solution (Sigma-Aldrich, Inc.), 100 units/mL penicillin (Gibco/Life Technologies, Inc.) and 100 μg/mL of streptomycin (Gibco/Life Technologies, Inc.) under the conditions of 37° C. and 5% carbon dioxide gas. The DLD-1 cells were seeded in a 10 cm dish, and 20 μg of a luciferase gene plasmid pGL4.27 having a TCF responsive sequence inserted therein was transfected into the cells using 10 μL of Attractene (Qiagen, Inc.) according to the protocol attached to the product. A stably expressing cell line (DLD-1/TCF-Luc) was selected using […] of hygromycin B (Wako Pure Chemical Industries Ltd.). The DLD-1/TCF-Luc cells were detached with trypsin and seeded in a 384-well plate, and a test compound was added at different concentrations. After 18 hours, the luciferase activity was measured using Steady-Glo™ Luciferase Assay System (Promega, Inc.).
The inhibition ratio was obtained according to the following formula 1. The inhibition ratio (%) of the compound of the present invention at 1 μmol/L against the TCF-luciferase reporter using the Wnt pathway as an index is shown in Table 6. [Math. 1] Inhibition ratio (%)=100−{(luciferase activity when test compound was added)−(luciferase activity of blank)}/{(luciferase activity of control)−(luciferase activity of blank)}×100 Formula 1

[2] = 1 μmol/L, DLD-1/TCF-Luc cells, luciferase activity after 18 hours

| Inhibition ratio (%) at 1 μmol/L (tankyrase-2) [%] | SMILES | inhibition at 1 µM [1, 2] [%] | inhibition at 1 µM ([1]; DLD-1, 18 h) [%] |
| --- | --- | --- | --- |
| 91 | COc1cc2ncnc(N3CCC(CN4Cc5ccccc5N(Cc5ccccc5C(N)=O)C4=O)CC3)c2cc1OC [Compound 1, 2-[(3-{[1-(6,7-Dimethoxyquinazolin-4-yl)piperidin-4-yl]methyl}-2-oxo-3,4-dihydroquinazolin-1(2H)-yl)methyl]benzamide] | 88 | – |
| 91 | COc1cc2ncnc(N3CCC(CN4Cc5ccccc5N(CC5CCCO5)C4=O)CC3)c2cc1OC (stereo not shown) [Compound 2, 3-{[1-(6,7-Dimethoxyquinazolin-4-yl)piperidin-4-yl]methyl}-1-[(tetrahydrofuran-2-yl)methyl]-3,4-dihydroquinazolin-2(1H)-one] | 87 | – |
| 94 | COc1cc2ncnc(N3CCC(CN4Cc5cc(S(C)(=O)=O)ccc5N(Cc5ccccc5C#N)C4=O)CC3)c2cc1OC [Compound 5, 2-[(3-{[1-(6,7-Dimethoxyquinazolin-4-yl)piperidin-4-yl]methyl}-6-(methylsulfonyl)-2-oxo-3,4-dihydroquinazolin-1(2H)-yl)methyl]benzonitrile] | 84 | – |
| 95 | COc1cc2ncnc(N3CCC(CN4Cc5ccccc5N(c5ccc(F)c(C#N)c5)C4=O)CC3)c2cc1OC [Compound 7, 5-(3-{[1-(6,7-Dimethoxyquinazolin-4-yl)piperidin-4-yl]methyl}-2-oxo-3,4-dihydroquinazolin-1(2H)-yl)-2-fluorobenzonitrile] | 76 | – |
| 88 | COc1cc2ncnc(N3CCC(CN4Cc5ccccc5N(c5c[nH]c(=O)c(C#N)c5)C4=O)CC3)c2cc1OC [Compound 12, 5-(3-{[1-(6,7-Dimethoxyquinazolin-4-yl)piperidin-4-yl]methyl}-2-oxo-3,4-dihydroquinazolin-1(2H)-yl)-2-oxo-1,2-dihydropyridine-3-carbonitrile] | 80 | – |
| 89 | COc1cc2ncnc(N3CCC(CN4Cc5ccccc5N(c5cccc(S(N)(=O)=O)c5)C4=O)CC3)c2cc1OC [Compound 13, 3-(3-{[1-(6,7-Dimethoxyquinazolin-4-yl)piperidin-4-yl]methyl}-2-oxo-3,4-dihydroquinazolin-1(2H)-yl)benzenesulfonamide] | 80 | – |
| 92 | COc1cc2ncnc(N3CCC(CN4Cc5ccccc5N(c5ccc(C(=O)O)c(C#N)c5)C4=O)CC3)c2cc1OC [Compound 15, 2-Cyano-4-(3-{[1-(6,7-dimethoxyquinazolin-4-yl)piperidin-4-yl]methyl}-2-oxo-3,4-dihydroquinazolin-1(2H)-yl)benzoic acid] | 84 | – |
| 71 | COc1cc2ncnc(N3CCC(CN4Cc5ccccc5N(C5CCOCC5)C4=O)CC3)c2cc1OC [Compound 16, 3-{[1-(6,7-Dimethoxyquinazolin-4-yl)piperidin-4-yl]methyl}-1-(tetrahydro-2H-pyran-4-yl)-3,4-dihydroquinazolin-2(1H)-one] | 63 | – |
| 79 | COc1cc2ncnc(N3CCC(O)(CN4Cc5ccccc5N(c5ccnc(C#N)c5)C4=O)CC3)c2cc1OC [Compound 18, 4-(3-{[1-(6,7-Dimethoxyquinazolin-4-yl)-4-hydroxypiperidin-4-yl]methyl}-2-oxo-3,4-dihydroquinazolin-1(2H)-yl)picolinonitrile] | 80 | – |
| 93 | COc1cc2ncnc(N3CCC(CN4Cc5ccncc5N(c5ccnc(C#N)c5)C4=O)CC3)c2cc1OC [Compound 21, 4-(3-{[1-(6,7-Dimethoxyquinazolin-4-yl)piperidin-4-yl]methyl}-2-oxo-3,4-dihydropyrido[3,4-d]pyrimidin-1(2H)-yl)picolinonitrile] | 76 | – |
| 98 | COc1cc2ncnc(N3CCC(CN4Cc5cccnc5N(c5ccnc(C#N)c5)C4=O)CC3)c2cc1OC [Compound 22, 4-(3-{[1-(6,7-Dimethoxyquinazolin-4-yl)piperidin-4-yl]methyl}-2-oxo-3,4-dihydropyrido[2,3-d]pyrimidin-1(2H)-yl)picolinonitrile] | 75 | – |
| 92 | COc1cc2ncnc(N3CCC(CN4Cc5nccnc5N(c5ccnc(C#N)c5)C4=O)CC3)c2cc1OC [Compound 24, 4-(3-{[1-(6,7-Dimethoxyquinazolin-4-yl)piperidin-4-yl]methyl}-2-oxo-3,4-dihydropteridin-1(2H)-yl)picolinonitrile] | 86 | – |

| SMILES | Inhibition ratio (%) at 1 μmol/L (tankyrase-2) [%] | inhibition at 1 µM [1, 2] [%] | inhibition at 1 µM ([1]; DLD-1, 18 h) [%] |
| --- | --- | --- | --- |
| COc1cc2ncnc(N3CCC(CN4Cc5ccccc5N(c5cccc([N+](=O)[O-])c5)C4=O)CC3)c2cc1OC [Compound 8, 3-{[1-(6,7-Dimethoxyquinazolin-4-yl)piperidin-4-yl]methyl}-1-(3-nitrophenyl)-3,4-dihydroquinazolin-2(1H)-one] | 90 | – | 73 |
| COc1cc2ncnc(N3CCC(CN4Cc5ccccc5N(c5ccnc(C#N)c5)C4=O)CC3)c2cc1OC [Compound 9, 4-(3-{[1-(6,7-Dimethoxyquinazolin-4-yl)piperidin-4-yl]methyl}-2-oxo-3,4-dihydroquinazolin-1(2H)-yl)picolinonitrile] | 91 | – | 74 |
